Results published in paper PMC9085681, “Towards Optimized Bioavailability of ^99mTc-Labeled Barbiturates for Non-invasive Imaging of Matrix Metalloproteinase Activity” (Molecular Imaging and Biology, 2021).
Where a name gives a salt, the structure may show the parent alone. Read-outs that look alike come from different tables or passages of the source.

What was measured:
[1] = distribution coefficient (logDexp), 1-octanol / PBS-buffer; type: physicochemical; conditions: 1-octanol / PBS-buffer pH = 7.4, 99mTc-labeled compound
Experimental: The serum stability of all radiolabeled compounds was evaluated by incubation in human and murine serum at 37 °C for up to 120 min and analyzed by HPLC. The distribution coefficients (logDexp) were determined in a two-phase system consisting of 1-octanol and PBS-buffer (pH = 7.4) according to the literature.
Following a method described by Prante et al.[13], the distribution coefficient (logDexp) of the radioactive compound was determined in a two-phase system consisting of 1-octanol and PBS-buffer (pH = 7.4) to determine the lipophilicity. For this purpose, the corresponding ligand (~ 20 kBq) was dissolved in buffer (500 μL). 1-Octanol (500 μL) was added and the mixture was shaken at room temperature for 1 min. To achieve phase separation, the system was centrifuged for 2 min at 3000 rpm. Subsequently a part of the octanol phase (400 μL) was removed and buffer (400 μL) was added. The combined phases were shaken and layers were separated according to the description above. Aliquots of the buffer and octanol layers (3 × 100 μL from every layer) were taken to measure radioactivity in a γ-counter. The measurement provided the activity in counts per minute (cpm), the values were decay corrected. By calculating the quotient of cpm (1-Octanol)cpm (PBS) the logDexp can be determined as logcpm (1-Octanol)cpm (PBS).

MMP-8 = MMP-8 (Homo sapiens, UniProt P22894); assay: in vitro MMP inhibition assay (fluorogenic substrate, protocol of Huang et al.); type: biochemical
Chain of MMP-8 (P22894 101-467, species assumed): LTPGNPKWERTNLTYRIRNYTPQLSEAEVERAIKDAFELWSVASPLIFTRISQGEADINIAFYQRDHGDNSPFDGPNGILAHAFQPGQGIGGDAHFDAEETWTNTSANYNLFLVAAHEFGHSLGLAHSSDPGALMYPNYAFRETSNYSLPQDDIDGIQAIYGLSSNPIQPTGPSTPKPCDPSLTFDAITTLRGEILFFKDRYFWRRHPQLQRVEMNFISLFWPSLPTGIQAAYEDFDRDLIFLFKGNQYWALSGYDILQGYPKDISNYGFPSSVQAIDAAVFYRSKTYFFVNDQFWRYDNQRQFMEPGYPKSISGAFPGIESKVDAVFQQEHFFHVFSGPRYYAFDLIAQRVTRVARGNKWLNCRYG
Experimental: (§1) In order to evaluate the affinity of the new barbiturate-based compounds towards MMPs, an in vitro inhibition study was performed. The IC50-values were determined for MMP-2, MMP-8, MMP-9, MMP-13, and […] using the protocol from Huang et al. Additionally, the corresponding precursors were also measured and outlined in the SI for comparison.
(§2) To determine the relative potency of new inhibitors in terms of IC50-values the method developed by Huang et al. was applied in an in vitro inhibition study.[14] Compounds of interest were evaluated regarding affinity to MMP-2, -8, -9, -13 and -14 using the artificial MMP-substrate (7-Methoxycoumarine-4-yl)-acetyl-Pro-Leu-Gly-Leu-[3-(2,4-dinitrophenyl)-l-2,3-diaminopropionyl]-Ala-Arg-NH2 (R&D Systems, Minneapolis, USA). The activated form of the corresponding MMPs (2 nM each) were incubated at 37 °C with the barbiturate derivatives in different concentrations (10 pM-1 mM) in TRIS-buffer (50 mM, pH = 7.5), sodium chloride (0.2M), calcium chloride (5 mM), zinc sulfate (20 µM) and Brij® (0.05%) for 30 min. Samples of this mixture (90 µL) were added to the substrate (50 µM, 10 µL) at 37 °C and the increase of fluorescence as a function of time was measured using a TriStar² LB 942 Analyzers (Berthold Technologies, λEx = 330 nm, λEm = 390 nm). The linear change of relative fluorescence after 10 min was plotted as a function of the concentration of the used inbhibitor. The IC50-values were determined by non-linear regression using the Grace 5.1.8 software (Linux).

MMP-13 = MMP-13 (Homo sapiens, UniProt P45452); assay: as above; type: biochemical
Experimental: as §1, §2

MMP-9 = MMP-9 (Homo sapiens, UniProt P14780); assay: as above; type: biochemical
Chain of MMP-9 (P14780 107-707 limits assumed, species assumed): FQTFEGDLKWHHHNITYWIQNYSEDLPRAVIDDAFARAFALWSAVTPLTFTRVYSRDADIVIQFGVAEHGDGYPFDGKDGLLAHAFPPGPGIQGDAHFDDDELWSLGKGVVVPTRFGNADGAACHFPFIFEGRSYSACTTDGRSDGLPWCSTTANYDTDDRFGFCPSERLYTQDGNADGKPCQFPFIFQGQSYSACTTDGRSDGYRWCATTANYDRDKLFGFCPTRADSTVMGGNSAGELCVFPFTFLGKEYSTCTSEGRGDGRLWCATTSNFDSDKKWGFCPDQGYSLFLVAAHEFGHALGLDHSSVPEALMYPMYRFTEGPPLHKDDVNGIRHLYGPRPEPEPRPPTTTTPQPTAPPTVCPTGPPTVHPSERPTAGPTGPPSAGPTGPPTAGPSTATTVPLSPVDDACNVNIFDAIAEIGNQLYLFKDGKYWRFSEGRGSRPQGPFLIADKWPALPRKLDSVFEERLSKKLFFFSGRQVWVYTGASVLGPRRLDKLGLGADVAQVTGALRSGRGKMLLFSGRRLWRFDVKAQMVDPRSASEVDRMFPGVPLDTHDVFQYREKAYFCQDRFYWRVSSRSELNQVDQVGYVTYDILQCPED
Experimental: as §1, §2

MMP-2 = biological target: T1, MMP-2 (Homo sapiens, UniProt P08253); assay: as above; type: biochemical
T1 sequence (P08253 110-660): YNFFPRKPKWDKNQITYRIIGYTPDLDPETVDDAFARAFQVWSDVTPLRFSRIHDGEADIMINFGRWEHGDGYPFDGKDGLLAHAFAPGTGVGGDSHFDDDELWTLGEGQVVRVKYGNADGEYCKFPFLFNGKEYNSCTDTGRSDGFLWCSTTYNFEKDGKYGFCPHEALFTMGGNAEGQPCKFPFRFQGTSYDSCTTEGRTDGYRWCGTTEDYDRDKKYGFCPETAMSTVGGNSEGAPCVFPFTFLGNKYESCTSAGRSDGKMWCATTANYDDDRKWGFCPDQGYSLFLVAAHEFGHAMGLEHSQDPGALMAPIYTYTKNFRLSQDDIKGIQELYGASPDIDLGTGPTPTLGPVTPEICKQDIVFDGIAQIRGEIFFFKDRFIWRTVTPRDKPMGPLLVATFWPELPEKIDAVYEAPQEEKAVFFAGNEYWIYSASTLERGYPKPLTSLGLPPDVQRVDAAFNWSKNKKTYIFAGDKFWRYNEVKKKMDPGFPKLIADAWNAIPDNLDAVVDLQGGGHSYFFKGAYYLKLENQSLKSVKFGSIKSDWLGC
Experimental: as §1, §2

MMP-14 = MMP-14 (Homo sapiens, UniProt P50281); assay: as above; type: biochemical
Experimental: as §1, §2

[2] = activated MMP 2 nM, 37 °C, 30 min preincubation, non-radioactive compound, read-out: IC50 MMP-8
[3] = activated MMP 2 nM, 37 °C, 30 min preincubation, non-radioactive compound, read-out: IC50 MMP-13
[4] = activated MMP 2 nM, 37 °C, 30 min preincubation, non-radioactive compound, read-out: IC50 MMP-9
[5] = activated MMP 2 nM, 37 °C, 30 min preincubation, non-radioactive compound, read-out: IC50 MMP-2
[6] = activated MMP 2 nM, 37 °C, 30 min preincubation, non-radioactive compound, read-out: IC50 MMP-14

Q: What does the source list for `N[C@@H](Cc1cn(CCOCCOCCOCCN2CCN(C3(c4ccc(Oc5ccccc5)cc4)C(=O)NC(=O)NC3=O)CC2)nn1)C(=O)[O][Re](=[C]=O)(=[C]=O)=[C]=O` [MEA39, (S)-2-Amino-3-[1-(2-{2-[2-(2-{4-[2,4,6-trioxo-5-(4-phenoxyphenyl)-hexahydropyrimidine-5-yl]piperazine-1-yl}ethoxy)ethoxy]ethoxy}ethyl)-1H-1,2,3-triazol-4-yl]propionic acid-carbonyl rhenium(I)]?
A: LogD (compound labeled by [^99mTc]) [1]: 0.79 ± 0.03; IC50 (MMP-8; [2]): 28 ± 7 nM; IC50 (MMP-13; [3]): 2 ± 0.3 nM; IC50 (MMP-9; [4]): 0.9 ± 0.1 nM; IC50 (MMP-2; [5]): 2 ± 0.5 nM; IC50 (MMP-14; [6]): 5.9 ± 0.7 nM

Q: With `NCCCC[C@H](NCc1cn(CCOCCOCCOCCN2CCN(C3(c4ccc(Oc5ccccc5)cc4)C(=O)NC(=O)NC3=O)CC2)nn1)C(=O)[O-].O=[C]=[Re+](=[C]=O)=[C]=O` [MEA61, {[1-(2-{2-[2-(2-{4-[2,4,6-Trioxo-5-(4-phenoxyphenyl)hexahydropyrimidin-5-yl]piperazin-1-yl}ethoxy)ethoxy]ethoxy}ethyl)-1H-1,2,3-triazol-4-yl]methyl}-L-lysinate tricarbonylrhenium(I)] as the compound, how does the “LogD (compound labeled by [^99mTc])” value [1] read?
A: Its value is 0.35 ± 0.23.

Q: And the IC50 (MMP-8; [2])?
A: The IC50 was 5.5 ± 0.4 nM.

Q: What about the IC50 (MMP-13; [3]) of the same compound?
A: Its IC50 is 26 ± 0.6 nM.

Q: And the IC50 (MMP-9; [4])?
A: The IC50 was 8 ± 0.5 nM.

Q: What about the IC50 (MMP-2; [5]) of the same compound?
A: The IC50 was 3.6 ± 0.7 nM.

Q: And the IC50 (MMP-14; [6])?
A: The IC50 was 14 ± 0.8 nM.

Q: With `N[C@@H](Cc1cn(CCOCCOCCOCCN2CCN(C3(c4ccc(Oc5ccccc5)cc4)C(=O)NC(=O)NC3=O)CC2)nn1)C(=O)O` [compound 14, (S)-2-Amino-3-[1-(2-{2-[2-(2-{4-[2,4,6-trioxo-5-(4-phenoxyphenyl)-hexahydropyrimidine-5-yl]piperazine-1-yl}ethoxy)ethoxy]ethoxy}ethyl)-1H-1,2,3-triazol-4-yl]propionic acid potassium salt] as the compound, how does the IC50 (MMP-8; read-out: IC50 MMP-8, activated MMP 2 nM, 37 °C, 30 min preincubation, non-radioactive compound) read?
A: The IC50 was 3.6 ± 2.6 nM.

Q: What about the IC50 (MMP-13; read-out: IC50 MMP-13, activated MMP 2 nM, 37 °C, 30 min preincubation, non-radioactive compound) of the same compound?
A: Its IC50 is 27 ± 9 nM.

Q: What about the IC50 (MMP-9; read-out: IC50 MMP-9, activated MMP 2 nM, 37 °C, 30 min preincubation, non-radioactive compound) of the same compound?
A: The IC50 was 1.4 ± 0.3 nM.

Q: What about the IC50 (MMP-2; read-out: IC50 MMP-2, activated MMP 2 nM, 37 °C, 30 min preincubation, non-radioactive compound) of the same compound?
A: Its IC50 is 0.6 ± 0.1 nM.

Q: What about the IC50 (MMP-14; read-out: IC50 MMP-14, activated MMP 2 nM, 37 °C, 30 min preincubation, non-radioactive compound) of the same compound?
A: The IC50 was 1.5 ± 0.4 nM.

Q: Which IC50 (MMP-8) does the source give for `NCCCC[C@H](NCc1cn(CCOCCOCCOCCN2CCN(C3(c4ccc(Oc5ccccc5)cc4)C(=O)NC(=O)NC3=O)CC2)nn1)C(=O)O` [compound 17, {[1-(2-{2-[2-(2-{4-[2,4,6-Trioxo-5-(4-phenoxyphenyl)hexahydropyrimidin-5-yl]piperazin-1-yl}ethoxy)ethoxy]ethoxy}ethyl)-1H-1,2,3-triazol-4-yl]methyl}-L-lysinate] here?
A: Its IC50 is 18 ± 3 nM.

Q: What about the IC50 (MMP-13) of the same compound?
A: Its IC50 is 58 ± 9 nM.

Q: And the IC50 (MMP-9)?
A: Its IC50 is 10 ± 2 nM.

Q: And the IC50 (MMP-2)?
A: Its IC50 is 7 ± 3 nM.

Q: What about the IC50 (MMP-14) of the same compound?
A: Its IC50 is 19 ± 2 nM.
